Data published in patent publication US9879308B2, “Apparatus for ex vivo microfluidic analysis of biologic samples” (The Charles Stark Draper Laboratory, Inc., priority 2012, dated 2018).
Read-outs that look alike come from different tables or passages of the source.

What was measured:
[1] = system: FNAB osteosarcoma samples; test: Ex vivo treatment of FNAB osteosarcoma samples in microfluidic apparatus, LIVE/DEAD fluorescence staining; assay type: cell-based, human
Description: Eight micro-scale fluidic apparatuses of the present technology were fabricated from soft photolithography and bonded onto glass coverslip slides. The apparatuses were sterilized by ethylene oxide (EtO) gas. Each fluidic apparatus included a single channel, and the center of the channel contained a series of seven free standing post, collectively called the retaining element, which were used to retain the FNBA osteosarcoma sample (see FIG. 3A). Fluid flows into the channel by an inlet port and out of the channel by an outlet port.
FNAB osteosarcoma samples were taken from xenograft mouse with patient-derived osteosarcoma using a 25-gauge needle. FNABs were processed and selected for viability by H&E staining procedures before use and individually loaded one into each retaining element and imaged by microscopy and measured for size (all FNABs assayed were ˜300 μm in diameter). […]
The fluidic apparatuses were connected to their respective syringe pumps. […] Media was collected every 24 hours and analyzed for caspase 3 and 7 and lactate dehydrogenase (LDH). […]
The FNAB samples were fully penetrated by drugs. Tumor cells were stained with HCS LIVE/DEAD® Green Kit (Life Technologies, Carlsband, Calif.) and images were obtained using inverted fluorescence microscope to assess dead (green) and alive (blue) cells.

[2] = system: tumor fragments obtained by FNAB from a patient-derived osteosarcoma xenograft model; assay type: in vitro ADME, human
Protocol: (§1) FIG. 8 provides an expanded view of an extracted ion chromatogram (XIC) from a potential metabolite highlighted against the background sample. Perfused fluid was collected from the fluidic apparatus as described in the above experiment performed with the FNAB samples (FIGS. 2A-C) to determine whether tumor-mediated drug processing and metabolism can be analyzed. Fluidic samples were prepared by filtration and analyzed by mass spectrometry.

[3] = system: FNAB osteosarcoma samples; test: Active caspase ELISA of perfused fluid from fluidic apparatus; assay type: cell-based, human; conditions: data not shown
Protocol: The fluidic apparatuses were connected to their respective syringe pumps. The FNAB samples were first primed with several passes of culture media. After priming, each FNAB sample was subject to constant laminar flow at 100 μl/hr for 72 hours with their respective treatment. Media was collected every 24 hours and analyzed for caspase 3 and 7 and lactate dehydrogenase (LDH).
as §1

[4] = system: patient-derived osteosarcoma xenograft; test: Treatment of patient-derived osteosarcoma xenograft mice in vivo (MRI tumor volume, H&E, cleaved-caspase 3); design: species or system mouse
Protocol: (§2) Xenograft mice bearing human osteosarcoma tumor were treated with vehicle, gemcitabine, MK-1775, or a combination of gemcitabine and MK-1775 for 15 days. Treatments were administered on day 1, 3, 8, and 10. FNAB samples were taken before (day 0) and at 6 and 24 hours after treatment. Cell extracts were prepared from the FNAB samples to assess expression levels of CDC2Y15, a target for MK-1775, by Western blot. After day 15, tumors were analyzed by T2-weighted MRIs and paraffin sections of tumors were prepared to assess microscopic features of cell death by H&E-staining and to assess levels of cleaved-caspase 3.
The symbol (*) indicates statistical significance (p<0.05).

[5] = system: CDC2Y15; test: Western blot of CDC2Y15 expression in FNAB cell extracts from treated xenograft mice; design: species or system mouse; conditions: in vivo treatment; compared to vehicle and gemcitabine treatments; FIG. 7A column (a)
Protocol: as §2

[6] = compared to vehicle and gemcitabine treatments, FIG. 7A column (c)

SMILES | cell death in tumor fragments ex vivo ([1]; 1 μM MK-1775, 3 μM gemcitabine, 100 μl/hr for 72 hours, LIVE/DEAD stain, FIG. 7C) | apoptosis of the cancer cells, ex vivo model ([1]; 72 hour period) | drug metabolism by tumor fragments (mass spectrometry) ([2]; human) | cell death by active caspase ELISA [3] | apoptosis of the cancer cells, in vivo model ([4]; 15 days of treatment) | DNA staining of tumor sections [4, 6] | immunoreactivity to caspase 3 [4, 6] | tumor volume at day 15 ([4]; day 15, compared to vehicle and gemcitabine treatments, FIG. 7A column (b)) | cell death in vivo ([4]; patient-derived osteosarcoma xenograft mouse model, FIG. 7A) | expression levels of CDC2Y15 [5] | drug metabolism by tumor fragments (mass spectrometry) [2]
C=CCn1c(=O)c2cnc(Nc3ccc(N4CCN(C)CC4)cc3)nc2n1-c1cccc(C(C)(C)O)n1 [MK-1775] | lead to cell death | able to induce apoptosis | metabolism of MK-1775 into its metabolized forms | increased cell death | able to induce apoptosis | decreased DNA staining | high immunoreactivity to caspase 3 | reduced tumor volume | lead to cell death | reduces expression levels of CDC2Y15 | –
Nc1ccn([C@@H]2O[C@H](CO)[C@@H](O)C2(F)F)c(=O)n1 [gemcitabine] | – | – | – | not | – | – | – | – | – | – | active metabolism of gemcitabine into its active form, triphosphate
